Measured values published in US20210077500A1, “PIKFYVE INHIBITORS FOR CANCER THERAPY” (Al Therapeutics, Inc., priority 2019, published 2021).
Like-named read-outs stand apart in the source and are kept apart here. Each block holds one compound with its values, some of them ahead of it.

How the values were obtained:
LS411N = experiment: CellTiter-Glo cell viability, single agent and combination (Chou-Talalay CI); format: cell-based; settings: 120 h, LS411N (colorectal, BRAF V600E), average of two independent experiments
Procedure: (§1) For assessment of synergistic activity, cells of each cell line were seeded at optimal density for growth onto different 96-well plates and placed into a humidified incubator (37° C., 5% CO2) to adhere overnight. The following day, the cells on each plate were treated either with a single agent (a PIKfyve inhibitor, e.g., apilimod, or a RAS pathway inhibitor) or with a combination of the two agents. Cells were treated for 120 hours and then assayed for cell viability using CellTiter-Glo™ (Promega).
(§2) Using this method, a CI value is calculated based on the effects of each drug alone on cell viability (single agent treatment) and the effects of each drug combination, across all combinations of both agents tested. The single agent treatments consisted of 8 different concentrations of each single agent, obtained by serial dilution. The concentrations were chosen to provide a range above and below the IC50 value of the single agent (if achieved) in a given cell line.
(§3) D1 alone and D2 alone were estimated from Hill's equation:

Caki-1 = experiment: 5-day viability assay, single agent and combination (Chou-Talalay CI); settings: Homo sapiens, CAKI-1, 120 h
Procedure: as §1, §2, §3
(§4) Here, we utilized cells harboring MET pathway activation, particularly the EBC-1, MKN45 and Caki-1 cell lines. In addition to MET inhibitors, since MET activates the RAS pathway, we also assayed for synergistic activity with inhibitors of the RAS pathway in these cells.

A375 = experiment: CellTiter-Glo cell viability, single agent and combination (Chou-Talalay CI); settings: Homo sapiens, A-375, 120 h, read-out: IC50 (single agent)
Procedure: (§5) For assessment of synergistic activity, cells of each cell line were seeded at optimal density for growth onto different 96-well plates and placed into a humidified incubator (37° C., 5% CO2) to adhere overnight. […] Cells were treated for 120 hours and then assayed for cell viability using CellTiter-Glo™ (Promega).
as §2

NCI-H1792 = experiment: as above; settings: Homo sapiens, NCI-H1792, 120 h, read-out: IC50 (single agent)
Procedure: as §5, §2

GP5d = experiment: as above; format: cell-based; settings: Homo sapiens, 120 h, GP5d (colorectal, KRAS G12D), average of two independent experiments
Procedure: as §1, §2, §3

EBC-1 = experiment: 5-day viability assay, single agent and combination (Chou-Talalay CI); settings: Homo sapiens, EBC-1, 120 h
Procedure: as §1, §2, §3, §4

RKO cells = experiment: CellTiter-Glo cell viability, single agent and combination (Chou-Talalay CI); settings: Homo sapiens; for IC50: 120 h, read-out: IC50 (single agent), RKO (colorectal, BRAF V600E), 120 h, average of two independent experiments
Procedure: as §1, §2
In each experiment for a given cell line, the combination treatments consisted of 8×8 or 64 different combination treatments.
Using this method, combinations with CI values>1 are considered antagonistic, CI values=1 are considered additive, and CI values<1 are considered synergistic.

HT-29 = experiment: as above; format: cell-based; settings: Homo sapiens, HT-29, 120 h, HT-29 (colorectal, BRAF V600E), average of two independent experiments
Procedure: as §1, §2, §3

MKN45 = experiment: 5-day viability assay, single agent and combination (Chou-Talalay CI); settings: Homo sapiens, MKN-45, 120 h
Procedure: as §1, §2, §3, §4

A549 = experiment: CellTiter-Glo cell viability, single agent and combination (Chou-Talalay CI); settings: Homo sapiens, A549, 120 h, read-out: IC50 (single agent)
Procedure: as §5, §2

MDST8 = experiment: 5-day CellTiter-Glo viability sensitivity screen; format: cell-based; settings: 120 h; MDST8 colorectal; 5-day viability assays; read-out: IC50 (sensitive/resistant cut-off)
HCT116 = experiment: 5-day CellTiter-Glo viability sensitivity screen; format: cell-based; settings: Homo sapiens, HCT-116, 120 h; HCT116 colorectal (KRAS p.G13D); 5-day viability assays; read-out: IC50 (sensitive/resistant cut-off)
[1] = tested on: colorectal cancer cell lines; experiment: Sensitivity screen, share of sensitive cell lines; format: cell-based; settings: nine out of 14 cell lines; 5-day CellTiter-Glo viability
NCI-H1944 = experiment: CellTiter-Glo cell viability, single agent and combination (Chou-Talalay CI); settings: Homo sapiens, NCI-H1944, 120 h, read-out: IC50 (single agent)
Procedure: as §5, §2

NCI-H2030 = experiment: as above; settings: Homo sapiens, NCI-H2030, 120 h, read-out: IC50 (single agent)
Procedure: as §5, §2

SW1417 = experiment: 5-day CellTiter-Glo viability sensitivity screen; format: cell-based; settings: Homo sapiens, 120 h; SW1417 colorectal; 5-day viability assays; read-out: IC50 (sensitive/resistant cut-off)
COLO-205 = experiment: 5-day CellTiter-Glo viability sensitivity screen; format: cell-based; settings: Homo sapiens, 120 h; COLO-205 colorectal; 5-day viability assays; read-out: IC50 (sensitive/resistant cut-off)
A427 = experiment: CellTiter-Glo cell viability, single agent and combination (Chou-Talalay CI); settings: Homo sapiens, A-427, 120 h, read-out: IC50 (single agent)
Procedure: as §5, §2

COLO-741 = experiment: 5-day CellTiter-Glo viability sensitivity screen; format: cell-based; settings: Homo sapiens, 120 h; COLO-741 colorectal; 5-day viability assays; read-out: IC50 (sensitive/resistant cut-off)
[2] = tested on: cell lines harboring MET pathway activation; experiment: 5-day viability assay, share of sensitive cell lines; format: cell-based; settings: 6/10 cell lines
SW480 = experiment: 5-day CellTiter-Glo viability sensitivity screen; format: cell-based; settings: Homo sapiens, 120 h; SW480 colorectal (KRAS p.G12V); 5-day viability assays; read-out: IC50 (sensitive/resistant cut-off)
SNU-5 = experiment: 5-day viability assay; format: cell-based; settings: Homo sapiens, 120 h, SNU-5 (gastric, MET AMP), two independent experiments
DLD1 = experiment: 5-day CellTiter-Glo viability sensitivity screen; format: cell-based; settings: Homo sapiens, DLD-1, 120 h; DLD1 colorectal (KRAS p.G13D); 5-day viability assays; read-out: IC50 (sensitive/resistant cut-off)
NCI-H596 = experiment: 5-day viability assay; format: cell-based; settings: Homo sapiens, 120 h, NCI-H596 (NSCLC, MET Exon 14), two independent experiments
NCI-H2122 = experiment: CellTiter-Glo cell viability, single agent and combination (Chou-Talalay CI); settings: Homo sapiens, NCI-H2122, 120 h, read-out: IC50 (single agent)
Procedure: as §5, §2

Hs746T = experiment: 5-day viability assay; format: cell-based; settings: Homo sapiens, 120 h, Hs746T (gastric, AMP, Exon 14), two independent experiments
BxPC3 = experiment: CellTiter-Glo cell viability, single agent; format: cell-based; settings: Homo sapiens, BXPC-3; BxPC3 (pancreatic, BRAF delV487-P492); 120 h; average of two independent experiments
Procedure: The cell lines used in this study were derived from lung cancers, colorectal cancers, pancreatic cancer and melanoma, as shown in Table 2 below.
as §5

SW620 = experiment: 5-day CellTiter-Glo viability sensitivity screen; format: cell-based; settings: Homo sapiens, SW-620, 120 h; SW620 colorectal (KRAS p.G12V); 5-day viability assays; read-out: IC50 (sensitive/resistant cut-off)
NCI-H2023 = experiment: 5-day viability assay; format: cell-based; settings: 120 h, NCI-H2023 (NSCLC, Autocrine), two independent experiments
SBC-5 = experiment: 5-day viability assay; format: cell-based; settings: Homo sapiens, 120 h, SBC-5 (SCLC, MET AMP), two independent experiments
NCI-H1993 = experiment: 5-day viability assay; format: cell-based; settings: Homo sapiens, 120 h, NCI-H1993 (NSCLC, MET AMP), two independent experiments
SW1116 = experiment: 5-day CellTiter-Glo viability sensitivity screen; format: cell-based; settings: Homo sapiens, SW 1116, 120 h; SW1116 colorectal (KRAS p.G12A); 5-day viability assays; read-out: IC50 (sensitive/resistant cut-off)
NCI-H820 = experiment: 5-day viability assay; format: cell-based; settings: 120 h, NCI-H820 (NSCLC, MET AMP), two independent experiments
HCT-15 = experiment: CellTiter-Glo cell viability, single agent and combination (Chou-Talalay CI); format: cell-based; settings: Homo sapiens, HCT-15, 120 h, HCT-15 (colorectal, KRAS G13D), average of two independent experiments
Procedure: as §1, §2, §3

[3] = read-out: IC50 (single agent), EBC-1, 120 h, average of two independent experiments
[4] = read-out: IC50 (single agent), MKN45, 120 h, average of two independent experiments
[5] = read-out: Viability (normalized)

Compound: CC(=O)Nc1cccc(-n2c(=O)n(C3CC3)c(=O)c3c(Nc4ccc(I)cc4F)n(C)c(=O)c(C)c32)c1 [Trametinib, trametinib]
IC50 (LS411N; Homo sapiens, LS-411N): 1 nM | IC50 (Caki-1; read-out: IC50 (single agent)): 47 nM | IC50 (A375): 2 nM | IC50 (NCI-H1792): 33 nM | IC50 (GP5d): > 5 µM | IC50 (EBC-1; [3]): 10 nM | IC50 (RKO cells): 0.032 µM | IC50 (HT-29): 3 nM | IC50 (MKN45; [4]): 18 nM | IC50 (A549): 17 nM

Compound: O=C(c1ccc(F)c(F)c1Nc1ccc(I)cc1F)N1CC(O)([C@@H]2CCCCN2)C1 [Cobimetinib, cobimetinib]
IC50 (Caki-1; read-out: IC50 (single agent)): > 5000 nM | IC50 (GP5d): > 5 µM | IC50 (EBC-1; [3]): 136 nM | IC50 (MKN45; [4]): 194 nM | IC50 (A549): 403 nM

Compound: C[C@@H](Oc1cc(-c2cnn(C3CCNCC3)c2)cnc1N)c1c(Cl)ccc(F)c1Cl [Crizotinib, crizotinib]
IC50 (EBC-1; [3]): 10 nM | IC50 (MKN45; [4]): 13 nM

Compound: Cc1cccc(/C=N/Nc2cc(N3CCOCC3)nc(OCCc3ccccn3)n2)c1 [apilimod]
IC50 (LS411N): 89 nM | IC50 (Caki-1; read-out: Average IC50): 373 nM | IC50 (MDST8): > 200 nM | IC50 (A375): 104 nM | IC50 (NCI-H1792): > 400 nM | IC50 (GP5d): 0.209 µM | IC50 (HCT116): < 200 nM | colorectal cancer cell lines sensitive to apilimod (average IC50 less than 200 nM) [1]: 64% | IC50 (NCI-H1944): 36 nM | IC50 (EBC-1; read-out: Average IC50, EBC-1 (NSCLC, MET AMP), 5-day viability assay, two independent experiments): 113 nM | IC50 (RKO cells): > 0.2 µM | viability at 0.023 µM (RKO cells; [5]): 98% | viability at 0.035 µM (RKO cells; [5]): 93% | viability at 0.053 µM (RKO cells; [5]): 96% | viability at 0.079 µM (RKO cells; [5]): 93% | viability at 0.119 µM (RKO cells; [5]): 97% | viability at 0.178 µM (RKO cells; [5]): 70% | viability at 0.267 µM (RKO cells; [5]): 53% | viability at 0.4 µM (RKO cells; [5]): 44% | IC50 (NCI-H2030): 228 nM | IC50 (SW1417): > 200 nM | IC50 (COLO-205): < 200 nM | IC50 (A427): 80 nM | IC50 (COLO-741): > 200 nM | cell lines harboring MET pathway activation sensitive to apilimod (IC50 less than 200 nM) [2]: 60% | IC50 (SW480): < 200 nM | IC50 (SNU-5): 862 nM | IC50 (DLD1): < 200 nM | IC50 (NCI-H596): 304 nM | IC50 (NCI-H2122): > 400 nM | IC50 (MKN45; read-out: Average IC50, MKN45 (gastric, MET AMP), 5-day viability assay, two independent experiments): 191 nM | IC50 (Hs746T): 108 nM | IC50 (BxPC3): > 400 nM | IC50 (SW620): < 200 nM | IC50 (NCI-H2023): 73 nM | IC50 (SBC-5): 108 nM | IC50 (NCI-H1993): 877 nM | IC50 (SW1116): < 200 nM | IC50 (NCI-H820): 103 nM | IC50 (A549): 49 nM

Compound: CNC(=O)c1cc(Oc2ccc(NC(=O)Nc3ccc(Cl)c(C(F)(F)F)c3)c(F)c2)ccn1 [Regorafenib, regorafenib]
IC50 (Caki-1; read-out: IC50 (single agent)): 5960 nM | IC50 (RKO cells): 4.92 µM | IC50 (HT-29): 6510 nM | IC50 (HCT-15): 7.05 µM | IC50 (A549): 6380 nM

Compound: CC(C)Nc1cc(-c2c[nH]c(C(=O)N[C@H](CO)c3cccc(Cl)c3)c2)c(Cl)cn1 [BVD-523]
IC50 (EBC-1; [3]): 866 nM | IC50 (RKO cells): 0.945 µM | IC50 (MKN45; [4]): 433 nM

Compound: Cc1cccc(/C=N/Nc2cc(N3CCOCC3)n3nc(-c4ccncc4)cc3n2)c1 [APY-0201]
IC50 (EBC-1; [3]): 171 nM | IC50 (MKN45; [4]): 269 nM

Compound: Cn1cnc2c(F)c(Nc3ccc(Br)cc3Cl)c(C(=O)NOCCO)cc21 [Selumetinib, selumetinib]
IC50 (LS411N; Homo sapiens, LS-411N): 46 nM | IC50 (EBC-1; [3]): 160 nM | IC50 (RKO cells): 3.51 µM | viability at 0.078 µM (RKO cells; [5]): 78% | viability at 0.125 µM (RKO cells; [5]): 78% | viability at 0.313 µM (RKO cells; [5]): 71% | viability at 0.625 µM (RKO cells; [5]): 74% | viability at 1.25 µM (RKO cells; [5]): 64% | viability at 2.5 µM (RKO cells; [5]): 53% | viability at 5 µM (RKO cells; [5]): 46% | viability at 100 µM (RKO cells; [5]): 32% | IC50 (MKN45; [4]): 1110 nM

Compound: CCCS(=O)(=O)Nc1ccc(F)c(C(=O)c2c[nH]c3ncc(-c4ccc(Cl)cc4)cc23)c1F [Vemurafenib, vemurafenib]
IC50 (LS411N; Homo sapiens, LS-411N): 350 nM | IC50 (RKO cells): 7.12 µM | IC50 (HT-29): 2470 nM | IC50 (HCT-15): > 10 µM

Compound: CNC(=O)c1ccc(-c2cnc3ncc(Cc4ccc5ncccc5c4)n3n2)cc1F [Capmatinib, capmatinib]
IC50 (EBC-1; [3]): 0.7 nM | IC50 (MKN45; [4]): 1.5 nM

More lines, in order of falling IC50 (MKN45; [4]), values ahead:

IC50 (MKN45; [4]): 5330 nM
Compound: Cn1nccc1Nc1nccc(-c2ccn([C@H](CO)c3ccc(Cl)c(F)c3)c(=O)c2)n1 [GDC-0994]
IC50 (EBC-1; [3]): 4150 nM

IC50 (MKN45; [4]): 533 nM
Compound: Cn1cnc2c(F)c(Nc3ccc(Br)cc3F)c(C(=O)NOCCO)cc21 [Binimetinib, binimetinib]
IC50 (GP5d): > 5 µM | IC50 (EBC-1; [3]): 75 nM

IC50 (MKN45; [4]): 67 nM
Compound: COc1cc2nccc(Oc3ccc(NC(=O)C4(C(=O)Nc5ccc(F)cc5)CC4)cc3)c2cc1OC [Cabozantinib, cabozantinib]
IC50 (EBC-1; [3]): 28 nM

IC50 (MKN45; [4]): 16 nM
Compound: CN1CCC(COc2cnc(-c3cccc(Cn4nc(-c5cccc(C#N)c5)ccc4=O)c3)nc2)CC1 [Tepotinib, tepotinib]
IC50 (EBC-1; [3]): 13 nM

IC50 (MKN45; [4]): 7 nM
Compound: COCCOc1cnc2ccn([C@H](C)c3nnc4c(F)cc(-c5cnn(C)c5)cn34)c(=O)c2c1 [AMG 337]
IC50 (EBC-1; [3]): 4 nM

IC50 (MKN45; [4]): 3 nM
Compound: C[C@@H](c1ccc2nccn2c1)n1nnc2ncc(-c3cnn(C)c3)nc21 [Savolitinib, savolitinib]
IC50 (EBC-1; [3]): 1.5 nM
